Assay [1] addresses T1, GST-tagged Tankyrase-1 (1023-1327 aa) (Homo sapiens, UniProt O95271).
T1 construct: GST-tagged Tankyrase-1 (1023-1327 aa)
Description: Tankyrase 1 autoparsylation assay (HTRF enzyme assay). The class given is biochemical. On the procedure: (§1) The autoparsylation assay was run in two steps: the enzymatic reaction in which GST-tagged Tankyrase-1, resp Tankyrase-2 transferred biotinylated ADP-ribose to itself from biotinylated NAD as co-substrate and the detection reaction where a time resolved FRET between cryptate labelled anti-GST bound to the GST tag of the enzyme and Xlent® labelled-streptavidin bound the biotin-parsylation residue was analysed. The autoparsylation activity was detectable directly via the increase in HTRF signal.
(§2) The autoparsylation assay was performed as 384-well HTRF® (Cisbio, Codolet, France) assay format in Greiner low volume nb 384-well microtiter plates and was used for high throughput screen. 250 nM GST-tagged Tankyrase-1 (1023-1327 aa), respectively about 250 nM GST-tagged Tankyrase-2 (873-1166 aa) and 5 μM bio-NAD (Biolog, Life science Inst., Bremen, Germany) as co-substrate were incubated in a total volume of 5 μl (50 mM HEPES, 4 mM Mg-chloride, 0.05% Pluronic F-68, 1.4 mM DTT, 0.5% DMSO, pH 7.7) in the absence or presence of the test compound (10 dilution concentrations) for 90 min at 30° C. The reaction was stopped by the addition of 1 μl 50 mM EDTA solution. 2 μl of the detection solution (1.6 μM SA-Xlent® (Cisbio, Codolet, France), 7.4 nM Anti-GST-K® (Eu-labelled anti-GST, Cisbio, Codolet, France) in 50 mM HEPES, 800 mM KF, 0.1% BSA, 20 mM EDTA, 0.1% CHAPS, pH 7.0) were added. After 1 h incubation at room temperature the HTRF was measured with an Envision multimode reader (Perkin Elmer LAS Germany GmbH) at excitation wavelength 340 nm (laser mode) and emission wavelengths 615 nm and 665 nm. The ratio of the emission signals was determined. The full value used was the inhibitor-free reaction. The pharmacological zero value used was XAV-939 (Tocris) in a final concentration of 5 μM. The inhibitory values (IC50) were determined using either the program Symyx Assay Explorer® or Condosseo® from GeneData.

Assay [2] addresses T2, GST-tagged Tankyrase-2 (873-1166 aa) (Homo sapiens, UniProt Q9H2K2).
T2 construct: GST-tagged Tankyrase-2 (873-1166 aa)
Description: Tankyrase 2 autoparsylation assay (HTRF enzyme assay). The class given is biochemical. On the procedure: as §1, §2
Background: Time-resolved FRET reads energy transfer from a long-lived donor to a nearby acceptor.

The next assay relates to tankyrase 1/2. Description: Measurement of cellular inhibition of tankyrase (Axin2 level, Luminex based assay, DLD1 cells). Conditions: 24 hours, increase of Axin2 level, read-out: EC50 tankyrase 1/2 (cell assay). The protocol:
Measurement of Cellular Inhibition of Tankyrase
Since Tankyrases have been described to modulate cellular level of Axin2 (Huang et al., 2009; Nature) the increase of Axin2 level is used as read-out for determination of cellular inhibition of Tankyrases in a Luminex based assay.
Cells of the colon carcinoma cell line DLD1 are plated in 96 well plates with 1.5×10^4 cells per well. Next day, cells are treated with a serial-dilution of test compound in seven steps as triplicates with a final DMSO concentration of 0.3%. After 24 hours, cells are lysed in lysis buffer (20 mM Tris/HCl pH 8.0, 150 mM NaCl, 1% NP40, 10% Glycerol) and lysates are cleared by centrifugation through a 96 well filter plate (0.65 μm). Axin2 protein is isolated from cell lysates by incubation with a monoclonal anti-Axin2 antibody (R&D Systems #MAB6078) that is bound to fluorescent carboxybeads. Then, bound Axin2 is specifically detected with a polyclonal anti-Axin2 antibody (Cell Signaling #2151) and an appropriate PE-fluorescent secondary antibody. The amount of isolated Axin2 protein is determined in a Luminex^200 machine (Luminex Corporation) according to the manufacturer's instruction by counting 100 events per well. […] For analysis, the obtained data were normalized against the untreated solvent control and fitted for determination of the EC50 values using the Assay Explorer software (Accelrys).

The target in assay [3] is T3, GST-tagged Tnks-1 (1023-1327 aa) (Homo sapiens, UniProt O95271).
T3 construct: GST-tagged Tnks-1 (1023-1327 aa, prepared in-house); made in house
The experiment in a line: TNKS 1 activity ELISA (autoparsylation assay). The class given is biochemical. Conditions: read-out: IC50 tankyrase 1 (ELISA assay). The protocol: (§3) Biochemical Activity Testing of TNKS 1 and 2: Activity ELISA (Autoparsylation Assay)
(§4) For analysis of autoparsylation activity of TNKS 1 and 2 an activity ELISA was performed: In the first step GST tagged TNKS was captured on a Glutathione coated plate. Then the activity assay with biotinylated NAD was performed in the absence/presence of the compounds. During the enzymatic reaction GST tagged TNKS transferred biotinylated ADP-ribose to itself from biotinylated NAD as co-substrate. For the detection streptavidin-HRP conjugate was added that bound to the biotinylated TNKS and was thereby captured to the plates. The amount of biotinylated resp autoparsylated TNKS was detected with a luminescence substrate for HRP. The level of the luminescence signal correlated directly with the amount of autoparsylated TNKS and therefore with activity of TNKS.
(§5) The activity ELISA was performed in 384 well Glutathione coated microtiter plates (Express capture Glutathione coated plate, Biocat, Heidelberg, Germany). The plates were pre-equilibrated with PBS. Then the plates were incubated with 50 μl 20 ng/well GST-tagged Tnks-1 (1023-1327 aa, prepared in-house), respectively GST-tagged Tnks-2 (873-1166 aa, prepared in-house) in assay buffer (50 mM HEPES, 4 mM Mg-chloride, 0.05% Pluronic F-68, 2 mM DTT, pH 7.7) overnight at 4° C. The plates were washed 3 times with PBS-Tween-20. The wells were blocked by incubation at room temperature for 20 minutes with 50 μl blocking buffer (PBS, 0.05% Tween-20, 0.5% BSA). Afterwards the plates were washed 3 times with PBS-Tween-20. The enzymatic reaction was performed in 50 μl reaction solution (50 mM HEPES, 4 mM Mg-chloride, 0.05% Pluronic F-68, 1.4 mM DTT, 0.5% DMSO, pH 7.7) with 10 μM bio-NAD (Biolog, Life science Inst., Bremen, Germany) as co-substrate in the absence or presence of the test compound (10 dilution concentrations) for 1 hour at 30° C. The reaction was stopped by 3 times washing with PBS-Tween-20. For the detection 50 μl of 20 ng/μl Streptavidin, HRP conjugate (MoBiTec, Göttingen, Germany) in PBS/0.05% Tween-20/0.01% BSA were added and the plates were incubated for 30 minutes at room temperature. After three times washing with PBS-Tween-20 50 μl of SuperSignal ELISA Femto Maximum sensitivity substrate solution (ThermoFisherScientific (Pierce), Bonn, Germany) were added. Following a 1 minute incubation at room temperature luminescence signals were measured with an Envision multimode reader (Perkin Elmer LAS Germany GmbH) at 700 nm. The full value used was the inhibitor-free reaction. The pharmacological zero value used was XAV-939 (Tocris) in a final concentration of 5 μM. The inhibitory values (IC50) were determined using either the program Symyx Assay Explorer® or Condosseo® from GeneData.
A general note: An ELISA detects its analyte on a solid surface through an enzyme-linked reagent.

The target of assay [4] is T4, GST-tagged Tnks-2 (873-1166 aa) (Homo sapiens, UniProt Q9H2K2).
T4 construct: GST-tagged Tnks-2 (873-1166 aa, prepared in-house); made in house
Description: TNKS 2 activity ELISA (autoparsylation assay). Conditions: read-out: IC50 tankyrase 2 (ELISA assay). The class given is biochemical. The protocol: as §3, §4, §5

IC50 and EC50 data for 17 compounds are collected here from patent US9339503B2, “Tetrahydro-quinazolinone derivatives as TANK and PARP inhibitors” (MERCK PATENT GMBH, priority 2012, dated 2016).

As a reminder, the IC50 is the concentration that inhibits the measured activity by half.

T2 sequence (Q9H2K2 873-1166): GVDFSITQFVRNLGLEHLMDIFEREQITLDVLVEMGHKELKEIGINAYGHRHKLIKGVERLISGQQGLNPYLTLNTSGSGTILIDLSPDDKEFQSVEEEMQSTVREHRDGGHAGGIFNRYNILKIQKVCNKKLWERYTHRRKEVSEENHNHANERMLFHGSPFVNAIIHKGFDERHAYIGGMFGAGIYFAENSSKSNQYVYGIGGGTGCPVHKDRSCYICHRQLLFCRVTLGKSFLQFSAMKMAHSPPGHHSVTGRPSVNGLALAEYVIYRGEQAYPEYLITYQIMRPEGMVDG
T1 sequence (O95271 1023-1327): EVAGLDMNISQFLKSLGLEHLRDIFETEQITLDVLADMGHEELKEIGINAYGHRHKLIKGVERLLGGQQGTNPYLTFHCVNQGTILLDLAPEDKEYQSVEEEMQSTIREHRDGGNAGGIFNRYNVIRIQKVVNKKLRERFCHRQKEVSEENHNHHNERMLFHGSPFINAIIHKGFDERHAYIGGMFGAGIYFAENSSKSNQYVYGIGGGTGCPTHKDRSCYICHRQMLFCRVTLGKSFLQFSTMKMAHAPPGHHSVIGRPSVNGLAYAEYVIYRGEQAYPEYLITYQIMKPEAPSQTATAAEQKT
T4 sequence (Q9H2K2 873-1166): as the sequence (Q9H2K2 873-1166) above
T3 sequence (O95271 1023-1327): as the sequence (O95271 1023-1327) above

Regarding `O=c1[nH]c(N2CCN(c3cccnc3)CC2)nc2c1CCCC2` [Compound A32, 2-[4-(3-pyridyl)piperazin-1-yl]-5,6,7,8-tetrahydro-3H-quinazolin-4-one], the IC50 in assay [1] and in assay [2] was 0.3 to 3 µM throughout.
For the compound `O=C(c1ccccc1)N1CCN(c2nc3c(c(=O)[nH]2)CCCC3)CC1` [Compound A17, 2-(4-Benzoylpiperazin-1-yl)-5,6,7,8-tetrahydro-3H-quinazolin-4-one], the IC50 in assay [1] and in assay [2] was 3 to 50 µM throughout.
As to `O=c1[nH]c(N2CCN(c3cccc(O)n3)CC2)nc2c1CCCC2` [Compound A16, 2-[4-(6-Hydroxypyridin-2-yl)piperazin-1-yl]-5,6,7,8-tetrahydro-3H-quinazolin-4-one], the half-inhibitory concentration (IC50) in assay [1] and in assay [2] was 3 to 50 µM in each case. Further, in the assay with tankyrase 1/2, the EC50 lay in the range of 3 to 50 µM.
Consider `N#CCc1ccc(N2CCN(c3nc4c(c(=O)[nH]3)CCCC4)CC2)cc1` [Compound A46, 2-[4-[4-(4-oxo-5,6,7,8-tetrahydro-3H-quinazolin-2-yl)piperazin-1-yl]phenyl] acetonitrile], for which the IC50 in assay [1] and in assay [2] was 0.3 to 3 µM throughout.
Take `O=c1[nH]c(N2CCN(CCO)CC2)nc2c1CCCC2` [Compound A25, 2-[4-(2-hydroxyethyl)piperazin-1-yl]-5,6,7,8-tetrahydro-3H-quinazolin-4-one]: the IC50 in assay [1] and in assay [2] was 3 to 50 µM each time.
With `COc1ccc(C2(O)CCN(c3nc4c(c(=O)[nH]3)CCCC4)CC2)cc1` [Compound A53, 2-[4-hydroxy-4-(4-methoxy-phenyl)-piperidin-1-yl]-5,6,7,8-tetrahydro-3H-quinazolin-4-one], the IC50 in assay [1] and in assay [2] was 0.3 to 3 µM throughout. Further, in the assay on tankyrase 1/2, the EC50 is 0.3 to 3 µM.
As for `CC(C)Oc1ccccc1N1CCN(c2nc3c(c(=O)[nH]2)CCCC3)CC1` [Compound A42, 2-[4-(2-isopropoxyphenyl)piperazin-1-yl]-5,6,7,8-tetrahydro-3H-quinazolin-4-one], the IC50 in assay [1] and in assay [2] was 0.3 to 3 µM each time.
Regarding `O=c1[nH]c(N2CCN(c3ccc(C(F)(F)F)cc3)CC2)nc2c1CCCC2` [Compound A50, 2-[4-(4-trifluoromethylphenyl)piperazin-1-yl]-5,6,7,8-tetrahydro-3H-quinazolin-4-one], the IC50 in assay [1] and in assay [2] was 0.3 to 3 µM each time.
As for `O=c1[nH]c(N2CCN(CCc3ccccn3)CC2)nc2c1CCCC2` [Compound A26, 2-[4-[2-(2-pyridyl)ethyl]piperazin-1-yl]-5,6,7,8-tetrahydro-3H-quinazolin-4-one], the IC50 in assay [1] and in assay [2] was 0.3 to 3 µM in each case.
`O=c1[nH]c(N2CCN(c3ccccc3OC(F)(F)F)CC2)nc2c1CCCC2` [Compound A43, 2-[4-[2-(trifluoromethoxy)phenyl]piperazin-1-yl]-5,6,7,8-tetrahydro-3H-quinazolin-4-one]: the IC50 lay within 0.3 to 3 µM in assay [1] and 3 to 50 µM in assay [2].
For `O=C(CN1CCN(c2nc3c(c(=O)[nH]2)CCCC3)CC1)Nc1ccccn1` [Compound A18, N-pyridin-2-yl-2-[4-(4-oxo-3,4,5,6,7,8-hexahydroquinazolin-2-yl)piperazin-1-yl]-acetamide], the IC50 in assay [1] and in assay [2] was 0.3 to 3 µM in each case. Moreover, the EC50 in the assay with tankyrase 1/2 was 3 to 50 µM.
In the case of `CC(C)(C)N1CCN(c2nc3c(c(=O)[nH]2)CCCC3)CC1` [Compound A13, 2-(4-tert-Butylpiperazin-1-yl)-5,6,7,8-tetrahydro-3H-quinazolin-4-one], the IC50 in assay [1] and in assay [2] was 0.3 to 3 µM in each case. Moreover, in the assay on tankyrase 1/2, the EC50 was 3 to 50 µM.
`CCOc1ccc(N2CCN(c3nc4c(c(=O)[nH]3)CCCC4)CC2)cc1` [Compound A48, 2-[4-(4-ethoxyphenyl)piperazin-1-yl]-5,6,7,8-tetrahydro-3H-quinazolin-4-one]: the IC50 in assay [3] was less than 0.3 µM; in assay [1], 0.3 to 3 µM; in assay [4], less than 0.3 µM; in assay [2] it was 0.3 to 3 µM.
Regarding `O=c1[nH]c(N2CCC(O)(c3ccccc3)CC2)nc2c1CCCC2` [Compound A35, 2-(4-hydroxy-4-phenyl-1-piperidyl)-5,6,7,8-tetrahydro-3H-quinazolin-4-one], the IC50 in assay [1] and in assay [2] was 0.3 to 3 µM in each case. For the same compound, the EC50 in the assay with tankyrase 1/2 was 0.3 to 3 µM.
Regarding `COc1ccc(N2CCN(c3nc4c(c(=O)[nH]3)CCCC4)CC2=O)cc1` [Compound A14, 2-[4-(4-Methoxyphenyl)-3-oxopiperazin-1-yl]-5,6,7,8-tetrahydro-3H-quinazolin-4-one], the IC50 in assay [1] and in assay [2] was 3 to 50 µM each time. In addition, the EC50 in the assay on tankyrase 1/2 fell in the range of 3 to 50 µM.
On to `O=C(N1CCCCC1)N1CCN(c2nc3c(c(=O)[nH]2)CCCC3)CC1` [Compound A15, 2-[4-(Piperidine-1-carbonyl)piperazin-1-yl]-5,6,7,8-tetrahydro-3H-quinazolin-4-one], for which the IC50 in assay [1] and in assay [2] was 3 to 50 µM each time. In the assay with tankyrase 1/2, the EC50 is 3 to 50 µM.
For `O=C(N1CCOCC1)N1CCN(c2nc3c(c(=O)[nH]2)CCCC3)CC1` [Compound A20, 2-[4-(Morpholine-4-carbonyl)piperazin-1-yl]-5,6,7,8-tetrahydro-3H-quinazolin-4-one], the IC50 in assay [1] and in assay [2] was 3 to 50 µM in each case. Further, the EC50 with tankyrase 1/2 lay in the range of 3 to 50 µM.
